Results: patent publication US20250195530A1, “POLQ INHIBITORS” (ASTRAZENECA AB, priority 2022, published 2025)
Like-named read-outs stand apart in the source and are kept apart here.

What was measured:
DLD-1 cells = experiment: Inhibition of proliferation, DLD-1 BRCA2 wt control (Cell Titre Glo 3D); type: cell-based; conditions: Homo sapiens
Procedure, shortened: (§1)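 Luminescent Cell Titre Glo 3D readout, taken on day 12 for homologous-recombination-deficient DLD-1 BRCA2−/− and day 7 for the wild-type control, after compound refresh on day 6. Compounds spanned 10 μM to 0.51 nM in three-fold steps; IC50 defined as 50% reduction of average maximum signal.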

DLD-1 BRCA2−/− cells = experiment: Homologous recombination synthetic lethal inhibition of proliferation, DLD-1 BRCA2-/- (Cell Titre Glo 3D); type: cell-based; conditions: for IC50: Homo sapiens
Procedure, shortened: as §1

[1] = DLD-1, DLD1 BRCA2 wt, mean, read-out: POLQ PD Prolif Lumin DLD1 mean pIC50 (converted)
[2] = DLD-1, DLD-1 BRCA2 −/−, mean, read-out: POLQ PD Prolif Lumin BRCA2 −/− mean pIC50 (converted)
[3] = DLD-1, second proliferation column (c6), DLD-1 BRCA2 wt control, read-out: POLQ PD Prolif Lumin (converted)
[4] = DLD-1, first proliferation column (c5), DLD-1 BRCA2-/-, read-out: POLQ PD Prolif Lumin (converted)
[5] = DLD-1, 168 h, DLD-1 BRCA2 wt cells, 7 days, read-out: POLQ PD Prolif Lumin DLD1 mean pIC50 (converted)
[6] = DLD-1, 288 h, DLD-1 BRCA2−/− cells, 12 days, read-out: POLQ PD Prolif Lumin BRCA2 −/− mean pIC50 (converted)
[7] = DLD-1, 168 h, DLD-1 (BRCA2 wt control), 7 days, Cell Titre Glo 3D, read-out: POLQ PD Prolif Lumin DLD1 Mean pIC50 (converted)
[8] = DLD-1, 288 h, DLD-1 BRCA2−/−, 12 days, Cell Titre Glo 3D, read-out: POLQ PD Prolif Lumin BRCA2 −/− Mean pIC50 (converted)
[9] = DLD-1, DLD-1 BRCA2 wt control proliferation, column head only partly shown, read-out: POLQ PD Prolif Lumin (converted)
[10] = DLD-1, DLD-1 BRCA2-/- proliferation, column head only partly shown, read-out: POLQ PD Prolif Lumin (converted)

`CC1(Oc2ncnc3c2nc(-c2cccc(OCCOCC(=O)O)c2Cl)n3Cc2cc(Cl)ccc2F)CC1` [Example U22, 2-(2-(2-chloro-3-(9-(5-chloro-2-fluorobenzyl)-6-(1-methylcyclopropoxy)-9H-purin-8-yl)phenoxy)ethoxy)acetic acid] gave an IC50 (DLD-1 cells; [1]) greater than 10 µM and an IC50 (DLD-1 BRCA2−/− cells; [2]) of 0.0501 µM.
For `CC1(Oc2ncnc3c2nc(-c2ccc(OCCCC(C)(C)C(=O)O)cc2Cl)n3Cc2cccc(Cl)c2)CC1` [Example T563, 5-(3-chloro-4-(9-(3-chlorobenzyl)-6-(1-methylcyclopropoxy)-9H-purin-8-yl)phenoxy)-2,2-dimethylpentanoic acid], the IC50 (DLD-1 cells; [3]) was 10 µM and the IC50 (DLD-1 BRCA2−/− cells; [4]) was 0.2 µM.
With `CC(Cc1ccccn1)n1c(-c2ccc(OCCN3CCNCC3)cc2Cl)nc2c(OC3(C)CC3)ncnc21` (single isomer, unassigned) [Example S8, 8-(2-chloro-4-(2-(piperazin-1-yl)ethoxy)phenyl)-6-(1-methylcyclopropoxy)-9-(1-(pyridin-2-yl)propan-2-yl)-9H-purine] the IC50 (DLD-1 cells; [5]) was greater than 10 µM and the “POLQ PD Prolif Lumin BRCA2 −/− mean pIC50” value (DLD-1 BRCA2−/− cells; DLD-1 BRCA2−/− cells, 12 days) was 5.0.
`COc1ccc(Cl)cc1Cn1c(-c2ccc(OCCOC(C)(C)C(=O)O)cc2Cl)nc2c(OC3(C)CC3)ncnc21` [Example U54, 2-(2-(3-chloro-4-(9-(5-chloro-2-methoxybenzyl)-6-(1-methylcyclopropoxy)-9H-purin-8-yl)phenoxy)ethoxy)-2-methylpropanoic acid] gave an IC50 (DLD-1 cells; [1]) greater than 10 µM and an IC50 (DLD-1 BRCA2−/− cells; [2]) of 0.126 µM.
With `CC1(Oc2ncnc3c2nc(-c2ccc(OCC(=O)NCCO)cc2Cl)n3Cc2ccccc2)CC1` [Example D28, 2-(4-(9-benzyl-6-(1-methylcyclopropoxy)-9H-purin-8-yl)-3-chlorophenoxy)-N-(2-hydroxyethyl)acetamide] the IC50 (DLD-1 cells; [5]) was greater than 10 µM and the IC50 (DLD-1 BRCA2−/− cells; [6]) was 0.0794 µM.
`Cc1cc(OCCN2CCNCC2)ncc1-c1nc2c(OC3(C)CC3)ncnc2n1Cc1ccccc1` [Example G6, 9-benzyl-8-(4-methyl-6-(2-(piperazin-1-yl)ethoxy)pyridin-3-yl)-6-(1-methylcyclopropoxy)-9H-purine] showed an IC50 (DLD-1 cells; [5]) greater than 10 µM and an IC50 (DLD-1 BRCA2−/− cells; [6]) of 0.501 µM.
`CN1CCCC(Oc2ccc(-c3nc4c(OC5(C)CC5)ncnc4n3Cc3ccccc3)c(Cl)c2)CC1` (single isomer, unassigned) [Example D13, 9-benzyl-8-(2-chloro-4-((1-methylazepan-4-yl)oxy)phenyl)-6-(1-methylcyclopropoxy)-9H-purine] was tested, and the IC50 (DLD-1 cells; [5]) was 3.98 µM and the IC50 (DLD-1 BRCA2−/− cells; [6]) was 0.126 µM.
`Cc1cc(OCCN2CCNCC2)ncc1-c1nc2c(OC3(C)CC3)ncnc2n1Cc1cccc(Cl)c1` [Example J6, 9-(3-chlorobenzyl)-8-(4-methyl-6-(2-(piperazin-1-yl)ethoxy)pyridin-3-yl)-6-(1-methylcyclopropoxy)-9H-purine] was tested, and the IC50 (DLD-1 cells; [5]) was greater than 10 µM and the IC50 (DLD-1 BRCA2−/− cells; [6]) was 0.631 µM.
In the case of `Cc1ccnc(Cn2c(-c3ccc(OC4CNC(=O)NC4)cc3Cl)nc3c(OC4(C)CC4)ncnc32)c1` [Example 42, 5-(3-Chloro-4-(6-(1-methylcyclopropoxy)-9-((4-methylpyridin-2-yl)methyl)-9H-purin-8-yl)phenoxy)tetrahydropyrimidin-2(1H)-one], the IC50 (DLD-1 cells; [7]) is reported as greater than 10 µM and the IC50 (DLD-1 BRCA2−/− cells; [8]) is reported as 6.31 µM.
Work on `Clc1cc(OCCN2CCNCC2)ccc1-c1nc2c(OC3CCC3)ncnc2n1Cc1ccccc1` [Example T506, 9-benzyl-8-(2-chloro-4-(2-(piperazin-1-yl)ethoxy)phenyl)-6-cyclobutoxy-9H-purine] yielded an IC50 (DLD-1 cells; [3]) of 2 µM and an IC50 (DLD-1 BRCA2−/− cells; [4]) of 0.501 µM.
`Cc1cnc(Cn2c(-c3ccc(OCCN4CCNCC4)cc3Cl)nc3c(OC4(C)CC4)ncnc32)s1` [Example L3, 2-((8-(2-chloro-4-(2-(piperazin-1-yl)ethoxy)phenyl)-6-(1-methylcyclopropoxy)-9H-purin-9-yl)methyl)-5-methylthiazole] was tested, and the IC50 (DLD-1 cells; [5]) was greater than 10 µM and the IC50 (DLD-1 BRCA2−/− cells; [6]) was 0.398 µM.
Molecule `CC1(Oc2ncnc3c2nc(-c2ccc(OCCN4CC5(CNC5)C4)cc2Cl)n3Cc2ccccc2)CC1` [Example 18, 8-(4-(2-(2,6-Diazaspiro[3.3]heptan-2-yl)ethoxy)-2-chlorophenyl)-9-benzyl-6-(1-methylcyclopropoxy)-9H-purine] has an IC50 (DLD-1 cells; [5]) of 5.01 µM and an IC50 (DLD-1 BRCA2−/− cells; [6]) of 0.398 µM.
`CC(C)Oc1ccc2c(n1)nc(-c1ccc(OCCN3CCNCC3)cc1Cl)n2Cc1ccccc1` [Example 8, 1-Benzyl-2-(2-chloro-4-(2-(piperazin-1-yl)ethoxy)phenyl)-5-isopropoxy-1H-imidazo[4,5-b]pyridine] showed an IC50 (DLD-1 cells; [5]) of 3.16 µM and an IC50 (DLD-1 BRCA2−/− cells; [6]) of 1 µM.
`CC1(Oc2ncnc3c2nc(-c2ccc(OCCN4CCNCC4)cc2Cl)n3Cc2csc(Cl)n2)CC1` [Example L7, 2-chloro-4-((8-(2-chloro-4-(2-(piperazin-1-yl)ethoxy)phenyl)-6-(1-methylcyclopropoxy)-9H-purin-9-yl)methyl)thiazole] was tested, and the IC50 (DLD-1 cells; [5]) was greater than 10 µM and the IC50 (DLD-1 BRCA2−/− cells; [6]) was 1.58 µM.
`CC(OCCOc1ccc(-c2nc3c(OC4(C)CC4)ncnc3n2Cc2cccc(Cl)c2)c(Cl)c1)C(=O)O` (racemic) [Example T305, rac-(R)-2-(2-(3-chloro-4-(9-(3-chlorobenzyl)-6-(1-methylcyclopropoxy)-9H-purin-8-yl)phenoxy)ethoxy)propanoic acid] was tested, and the IC50 (DLD-1 cells; DLD-1, second proliferation column (c6), taken as DLD-1 BRCA2 wt, read-out: POLQ PD Prolif Lumin (converted)) was greater than 10 µM and the IC50 (DLD-1 BRCA2−/− cells; DLD-1, first proliferation column (c5), taken as DLD-1 BRCA2-/-, read-out: POLQ PD Prolif Lumin (converted)) was 0.794 µM.
`COc1ccc(Cl)cc1Cn1c(-c2ccc(OCC[C@@H](C)C(=O)O)cc2Cl)nc2c(OC3(C)CC3)ncnc21` [Example 47, (R)-4-(3-chloro-4-(9-(5-chloro-2-methoxybenzyl)-6-(1-methylcyclopropoxy)-9H-purin-8-yl)phenoxy)-2-methylbutanoic acid] showed an IC50 (DLD-1 cells; [7]) greater than 7.94 µM and an IC50 (DLD-1 BRCA2−/− cells; [8]) of 0.0251 µM.
`CC(CCOc1ccc(-c2nc3c(OC4(C)CC4)ncnc3n2Cc2cc(Br)ccc2F)c(Cl)c1)C(=O)O` (racemic) [Example T258, 4-(4-(9-(5-bromo-2-fluorobenzyl)-6-(1-methylcyclopropoxy)-9H-purin-8-yl)-3-chlorophenoxy)-2-methylbutanoic acid] gave an IC50 (DLD-1 cells; [9]) greater than 10 µM and an IC50 (DLD-1 BRCA2−/− cells; [10]) of 0.0794 µM.
For `Cc1ccnc(Cn2c(-c3ccc(CN4CC5(CCN5)C4)cc3Cl)nc3c(OC4(C)CC4)ncnc32)c1` [Example T489, 8-(4-((1,6-diazaspiro[3.3]heptan-6-yl)methyl)-2-chlorophenyl)-6-(1-methylcyclopropoxy)-9-((4-methylpyridin-2-yl)methyl)-9H-purine], the IC50 (DLD-1 cells; [3]) was 5.01 µM and the IC50 (DLD-1 BRCA2−/− cells; [4]) was 0.794 µM.
`CC1(Oc2ncnc3c2nc(-c2ccc(OCCN4CCNCC4)cc2Cl)n3Cc2ccccn2)CC1` [Example E7, 8-(2-chloro-4-(2-(piperazin-1-yl)ethoxy)phenyl)-6-(1-methylcyclopropoxy)-9-(pyridin-2-ylmethyl)-9H-purine] showed an IC50 (DLD-1 cells; [5]) greater than 10 µM and an IC50 (DLD-1 BRCA2−/− cells; [6]) of 1.26 µM.
In the case of `Cc1ccnc(Cn2c(-c3ccc(OCC4(O)CC4)cc3Cl)nc3c(OC4(C)CC4)ncnc32)c1` [Example T197, 1-((3-chloro-4-(6-(1-methylcyclopropoxy)-9-((4-methylpyridin-2-yl)methyl)-9H-purin-8-yl)phenoxy)methyl)cyclopropan-1-ol], the IC50 (DLD-1 cells; [3]) is reported as greater than 10 µM and the IC50 (DLD-1 BRCA2−/− cells; [4]) is reported as 0.251 µM.
With `Cc1cnc(Cn2c(-c3ccc(OCCN4CCNC[C@@H]4C)cc3Cl)nc3c(OC4(C)CC4)ncnc32)s1` [Example T393, (S)-2-((8-(2-chloro-4-(2-(2-methylpiperazin-1-yl)ethoxy)phenyl)-6-(1-methylcyclopropoxy)-9H-purin-9-yl)methyl)-5-methylthiazole] the IC50 (DLD-1 cells; DLD-1, proliferation, luminescence, second Prolif column (c6), taken as DLD-1 BRCA2 wt control, read-out: POLQ PD Prolif Lumin (converted)) was greater than 10 µM and the IC50 (DLD-1 BRCA2−/− cells; DLD-1, proliferation, luminescence, taken as DLD-1 BRCA2-/-, read-out: POLQ PD Prolif Lumin (converted)) was 0.794 µM.
`Cc1cc(OCCN2CCNCC2)ccc1-c1nc2c(OC(C)C)ncnc2n1Cc1ccccc1` [Example B2, 9-benzyl-6-isopropoxy-8-(2-methyl-4-(2-(piperazin-1-yl)ethoxy)phenyl)-9H-purine] was tested, and the IC50 (DLD-1 cells; [5]) was 6.31 µM and the IC50 (DLD-1 BRCA2−/− cells; [6]) was 0.501 µM.
`CC1(Oc2ncnc3c2nc(-c2ccc(OCCCC(=O)O)cc2Cl)n3Cc2cccc(Cl)c2)CC1` [Example 44, 4-(3-Chloro-4-(9-(3-chlorobenzyl)-6-(1-methylcyclopropoxy)-9H-purin-8-yl)phenoxy)butanoic acid] showed an IC50 (DLD-1 cells; [7]) greater than 10 µM and an IC50 (DLD-1 BRCA2−/− cells; [8]) of 0.158 µM.
Molecule `COc1ccc(F)cc1Cn1c(-c2ccc(OCCC(C)C(=O)O)cc2Cl)nc2c(OC3(C)CC3)ncnc21` (racemic) [Example U2, 4-(3-chloro-4-(9-(5-fluoro-2-methoxybenzyl)-6-(1-methylcyclopropoxy)-9H-purin-8-yl)phenoxy)-2-methylbutanoic acid] has an IC50 (DLD-1 cells; [1]) greater than 10 µM and an IC50 (DLD-1 BRCA2−/− cells; [2]) of 0.0631 µM.
Work on `CC(CCOc1ccc(-c2nc3c(OC4(C)CC4)ncnc3n2Cc2cc(Cl)ccc2Cl)c(Cl)c1)C(=O)O` (racemic) [Example T276, 4-(3-chloro-4-(9-(2,5-dichlorobenzyl)-6-(1-methylcyclopropoxy)-9H-purin-8-yl)phenoxy)-2-methylbutanoic acid] yielded an IC50 (DLD-1 cells; [9]) greater than 10 µM and an IC50 (DLD-1 BRCA2−/− cells; [10]) of 0.0631 µM.
